Data taken from patent publication US20140301961A1, “COMPOUNDS WITH ANTI-AGING ACTIVITIES” (priority 2011, published 2014).
“Also recorded” adds a separate entry of the source.

What was measured:
MMP3 = test: PMA inflammation induced MMP3 production in human dermal fibroblasts; assay type: cell-based; details: PMA 10 nM, 24 h (FIG. 4)
Method: (§1) MMP-inhibitory activity for compounds of the invention was also assessed on human dermal fibroblasts. Dermal fibroblasts were cultured in Dulbecco's Modified Eagle Medium (DMEM) (Invitrogen) with 10% EBS (ex. Invitrogen) and 1% Pencillin/Streptavidin (ex. Invitrogen). To induce inflammation in the cells, PMA (phorbol myristate acetate) (ex. Sigma) was used at a concentration of 10 nM. […] The cells were stimulated for 24 h and the culture supernatant was collected and stored at −20° C. until further analysis. Fluorokine MultiAnalyte Profiling (xMAP) using the BioPlex (ex. Biorad) dual laser flow-based sorting and detection analyzers manufactured by Luminex corporation (Luminex, Austin, Tex.) was employed to measure levels of MMP in conditioned media samples of stimulated dermal fibroblasts. The technology incorporated polystyrene microspheres dyed internally with differing ratios of two spectrally distinct fluorophores to create a family of different spectrally addressed bead sets. The bead utilized in this study was conjugated with a biotinylated capture antibody specific for a unique MMPs, The assay was performed without antecedent serum depletion. Results were compared with medium from cells treated with vehicle only (DMSO). The assays utilized a 96-well microplate format and were processed according to the manufacturer's protocol, including generation of a standard curve for each target prepared in background assay diluents. Values that fell within the linear range of the calibration assay were accepted. Samples were analyzed using the Bio-Plex suspension array system and Bio-Plex Manager software 4.0 (Bio-Rad Laboratories, Hercules, Calif.). Quantities were determined by comparison to standard curves obtained for the different MMP.

pro-collagen type 1 = test: Pro-collagen 1 ELISA in dermal fibroblasts; assay type: cell-based, human; details: 24 hour stimulation, 3 donors (FIG. 5)
Method: (§2) MMP-inhibitory activity for compounds of the invention was also assessed on human dermal fibroblasts. Dermal fibroblasts were cultured in Dulbecco's Modified Eagle Medium (DMEM) (Invitrogen) with 10% EBS (ex. Invitrogen) and 1% Pencillin/Streptavidin (ex. Invitrogen). To induce inflammation in the cells, PMA (phorbol myristate acetate) (ex. Sigma) was used at a concentration of 10 nM. […] The cells were stimulated for 24 h and the culture supernatant was collected and stored at −20° C. until further analysis.
Fibroblast cells were cultured as outlined in Example 3.1 and treated with compounds of the invention The secretion of pro-collagen in the cell culture supernatants were analyzed using Pro-Collagen 1 specific ELISA (#8003; ex. Quidel). Results were compared with cell culture supernatants from DMSO vehicle treated cells. The assays utilized a 96-well microplate format and were processed according to the manufacturer's protocol, including generation of a standard curve prepared in background assay diluents. Absorbance of the assay dye was read at a Synergy HT plate reader. Values that fell within the linear range of the calibration assay were accepted. Quantities were determined by comparison to standard curve obtained for pro-collagen 1.

[1] = test system: Fibroblast growth factor (FGF); test: FGF production in human skin explants; assay type: cell-based; details: topical (FIG. 13)
Method: Full thickness skin from surgical waste material from breast reductions was collected. Subcutaneous fat was removed with a scalpel. 8 mm punch biopsies was taken from the skin and referred to as skin explants. Thereafter, the explants were put on Millipore cell culture inserts (12 mm in diameter). Inserts containing skin explants were put in 6-well plate (1 insert/well) and 1 mL of supplemented keratinocyte medium (Cascade Biologics) was added to each well to allow survival and nutrition of the explants. […] Supernatants were thereafter collected and analyzed for GM-CSF production.
Human Skin Explants were Obtained and Treated as Described in Example 7.3.
The methodology described in Example 3.1 was adapted in order analyze FGF production in skin explants.

MMP1 = test: PMA inflammation induced MMP1 production in human dermal fibroblasts; assay type: cell-based; details: for inhibition of PMA inflammation induced MMP1 production: human dermal fibroblasts, PMA 10 nM, 24 h (FIG. 3); for MMP production: summary of FIGS. 2, 3 and 4 (UV skin explants and PMA dermal fibroblasts)
Method: as §1

VEGF = test: Inflammation induced VEGF synthesis in cultured dermal fibroblasts; assay type: cell-based, human; details: inflammatory inducer PMA (FIG. 10)
Method: as §2
Fluorokine MultiAnalyte Profiling (xMAP) using the BioPlex (ex. Biorad) dual laser flow-based sorting and detection analyzers manufactured by Luminex corporation (Luminex, Austin, Tex.) was employed to measure levels of MMP in conditioned media samples of stimulated dermal fibroblasts. The technology incorporated polystyrene microspheres dyed internally with differing ratios of two spectrally distinct fluorophores to create a family of different spectrally addressed bead sets. The bead utilized in this study was conjugated with a biotinylated capture antibody specific for a unique MMPs, The assay was performed without antecedent serum depletion. Results were compared with medium from cells treated with vehicle only (DMSO). The assays utilized a 96-well microplate format and were processed according to the manufacturer's protocol, including generation of a standard curve for each target prepared in background assay diluents. Values that fell within the linear range of the calibration assay were accepted. Samples were analyzed using the Bio-Plex suspension array system and Bio-Plex Manager software 4.0 (Bio-Rad Laboratories, Hercules, Calif.). Quantities were determined by comparison to standard curves obtained for the different MMP.
Cell culture and cytokine analysis was carried out on human dermal fibroblasts as described in Example 3.1. The methodology was adapted in order analyze VEGF production.

GM-CSF = GM-CSF production in PMA-stimulated human dermal fibroblasts; assay type: cell-based; details: PMA 10 nM (FIG. 8)
Method: Cell Cultures were Prepared According to Example 3.1
To induce inflammation in the cells PMA (phorbol myristate acetate) (ex. Sigma) was used at a concentration of 10 nM. […] The cells were stimulated for 24 h and the culture supernatant was collected and stored at −20° C. until further analysis.
Experimental method as outlined in Example 3.1 was modified in order to analyze GM-CSGF levels in human dermals fibroblasts stimulated with all-trans retinoic acid, retinol, arachidonic acid, β-aescin, and […] (ethyl ester) at a range of concentrations. Experiments were performed in duplicates.

[2] = In vitro skin permeation, static Franz diffusion cells; assay type: in vitro ADME; details: 0.5% w/w in a basic formulation, topical, 24 hours, pig skin (FIG. 1)
Excerpt: The in vitro skin permeation experiments were developed and validated according to the Organization for Economic Co-Operation and Development adopted guideline 428 (OECD guideline for the testing of chemicals. Skin absorption: in vitro method. Guideline 428 (Paris, April 2004, updated January 2011)).
For this investigation, static Franz glass diffusion cells (Permegear, USA) were used. These cells consist of donor and receptor chambers in between which a piece of porcine skin was positioned (thickness 800 μm). About 20 mg/cm^2 of each formulation were applied on the skin surface through the donor compartment in triplicate for each formulation. The pig skin samples were equilibrated for 30 minutes, and air bubbles were removed. The cells were kept at constant temperature with a circulating water flow at 37° C. and the receptor compartment content (ethanol/water 50:50) was continuously agitated by magnetic stirrers.
After an exposure time of 24 hours, the diffusion cells were dismounted and each active was analysed in each compartment. • the non absorbable dose: the skin surface was washed with 10.0 ml of methanol and one tape-strip was made in order to remove the residual donor samples. • the potentially absorbable dose: the tape stripping procedure was used in order to separate the stratum corneum from the skin sample. […]

[3] = test system: Plasminogen activator (PLAT); test: Plasminogen activator (PLAT) activation

SMILES	inhibition of PMA inflammation induced MMP3 production (MMP3)	production of pro-collagen type 1 (pro-collagen type 1)	FGF production [1]	FGF production ([1]; listed as naringenin)	inhibition of PMA inflammation induced MMP1 production (MMP1)	MMP production (MMP1)	inflammatory induced VEGF synthesis (VEGF)	GM-CSF production (GM-CSF)	penetration into the skin [2]	Plasminogen activator (PLAT) activation [3]
O=C1C[C@@H](c2ccc(O)cc2)Oc2cc(O)cc(O)c21 [Naringenin, (S)-2,3-Dihydro-5,7-dihydroxy-2-(4-hydroxyphenyl)-4H-1-benzopyran-4-one]	inhibition	convincing trend towards increasing	higher FGF production than retinoic acid	Stimulation of FGF production	inhibition	ability to inhibit MMP production	reduce inflammatory induced VEGF synthesis	inhibition of GM-CSF production	penetration of each active into the skin	
CC(=O)N[C@@H](CC(=O)O)C(=O)O [N-Acetyl aspartic acid, (2S)-2-Acetamidobutanedioic acid]	inhibition	significantly increase	higher FGF production than retinoic acid; also recorded: Stimulation of FGF production		inhibition	ability to inhibit MMP production	reduce inflammatory induced VEGF synthesis	inhibition of GM-CSF production	penetration of each active into the skin	activated
C=C1C[C@]23C[C@@]1(O)CC[C@H]2[C@@]12C=C[C@H](O)[C@@](C)(C(=O)O1)[C@@H]2[C@@H]3C(=O)O [Gibberellic acid, (3S,3aS,4S,4aS,7S,9aR,9bR,12S)-7,12-dihydroxy-3-methyl-6-methylene-2-oxoperhydro-4a,7-methano-9b,3-propenoazuleno[1,2-b]furan-4-carboxylic acid]	inhibition	significantly increase	higher FGF production than retinoic acid; also recorded: Stimulation of FGF production		inhibition	ability to inhibit MMP production	reduce inflammatory induced VEGF synthesis	inhibition of GM-CSF production		activated
